Data taken from patent US12077485B2, “Lipid nanoparticle compositions for delivering circular polynucleotides” (Orna Therapeutics, Inc., priority 2021, dated 2024).

What was measured:
[1] = test system: splenic immune cells (T cells, myeloid cells, B cells, NK cells); experiment: mOX40L expression in splenic immune cells, flow cytometry; format: in vivo, C57BL/6 female mice; details: 1 mg/kg intravenously, 24 hours, IL:P 5.7, 50:10:38.5:1.5; compared to Lipid 15 of Table 10f
Protocol: The ionizable lipid: helper lipid: cholesterol: PEG-lipid molar ratio of these LNPs was 50:10:38.5:1.5. Dialysis of the LNPs were performed using PBS. C57BL/6 female mice (6-8 weeks, n=4) were dosed at either LNP comprising Lipid 1 of Table 10e or the Lipid 15 of Table 10f at 1 mg/kg intravenously. At 24 hours, the spleen from the mice were collected for flow cytometry analysis. mOX40L transfection of Lipid 1 of Table 10e and Lipid 15 of Table 10f were compared in T cells, myeloid cells, B cells, and NK cells.

splenic T cells = experiment: mOX40L expression in splenic T cells, flow cytometry; format: in vivo, C57BL/6 female mice; details: 1 mg/kg intravenously, 24 hours, IL:P 5.7
Protocol: The ionizable lipid: helper lipid: cholesterol: PEG-lipid molar ratio of these LNPs was 50:10:38.5:1.5. C57BL/6 female mice (6-8 weeks, n=4) were dosed at 1 mg/kg intravenously. At 24 hours, the spleen from the mice were collected for flow cytometry analysis, tested for weight loss and measured for serum alanine aminotransferase (ALT) after blood collection. mOX40L expression was measured in splenic T cells.

CCCCCCCCCCCCC(O)CN(CCCO)CCCCCCCC(=O)OC(CCCCCCCC)CCCCCCCC (centres unmarked) [Lipid 1 of Table 10e, heptadecan-9-yl 8-((3-hydroxypropyl)(2-hydroxytetradecyl)amino)octanoate]
mOX40L transfection in splenic immune cells [1]: comparable or higher levels of mOX40L transfection | expression of mOX40L in splenic T cells (splenic T cells): resulted in expression of mOX40L in splenic T cells
